Source: patent US20210070748A1, “INHIBITORS OF BRUTONS TYROSINE KINASE” (Pharmacyclics LLC, priority 2015, published 2021)

Experiments:
ITK = biological target: T1, ITK (Homo sapiens, UniProt Q08881); test: Inhibition of a panel of kinases, in vitro HotSpot kinase assay: ITK; assay type: biochemical; details: E compounds, Table 17
T1 sequence (Q08881 1-620): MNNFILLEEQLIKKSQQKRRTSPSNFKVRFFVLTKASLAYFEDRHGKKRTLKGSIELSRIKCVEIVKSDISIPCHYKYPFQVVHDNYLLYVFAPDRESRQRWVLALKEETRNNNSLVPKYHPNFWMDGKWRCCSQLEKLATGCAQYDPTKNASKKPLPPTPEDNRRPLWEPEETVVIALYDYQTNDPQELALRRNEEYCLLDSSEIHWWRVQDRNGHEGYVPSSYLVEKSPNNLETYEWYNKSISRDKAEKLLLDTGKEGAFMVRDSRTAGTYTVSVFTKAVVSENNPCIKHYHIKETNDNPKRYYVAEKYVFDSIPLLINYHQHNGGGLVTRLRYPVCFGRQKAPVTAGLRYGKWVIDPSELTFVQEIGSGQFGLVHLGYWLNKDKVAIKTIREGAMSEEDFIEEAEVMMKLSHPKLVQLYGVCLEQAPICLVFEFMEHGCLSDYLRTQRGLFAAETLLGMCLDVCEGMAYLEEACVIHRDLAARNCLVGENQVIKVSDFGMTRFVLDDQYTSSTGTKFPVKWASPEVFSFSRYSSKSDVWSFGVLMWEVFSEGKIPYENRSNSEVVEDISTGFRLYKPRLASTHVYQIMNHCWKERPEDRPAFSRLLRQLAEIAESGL
Description: (§1) The degree of inhibition of a panel of kinases is determined using the in vitro HotSpot kinase assay (purified enzymes, ^33P-ATP, an appropriate substrate and 1 μM ATP).

TEC = biological target: T2, TEC (Homo sapiens, UniProt P42680); test: Inhibition of a panel of kinases, in vitro HotSpot kinase assay: TEC; assay type: biochemical; details: E compounds, Table 17
T2 sequence (P42680 1-631): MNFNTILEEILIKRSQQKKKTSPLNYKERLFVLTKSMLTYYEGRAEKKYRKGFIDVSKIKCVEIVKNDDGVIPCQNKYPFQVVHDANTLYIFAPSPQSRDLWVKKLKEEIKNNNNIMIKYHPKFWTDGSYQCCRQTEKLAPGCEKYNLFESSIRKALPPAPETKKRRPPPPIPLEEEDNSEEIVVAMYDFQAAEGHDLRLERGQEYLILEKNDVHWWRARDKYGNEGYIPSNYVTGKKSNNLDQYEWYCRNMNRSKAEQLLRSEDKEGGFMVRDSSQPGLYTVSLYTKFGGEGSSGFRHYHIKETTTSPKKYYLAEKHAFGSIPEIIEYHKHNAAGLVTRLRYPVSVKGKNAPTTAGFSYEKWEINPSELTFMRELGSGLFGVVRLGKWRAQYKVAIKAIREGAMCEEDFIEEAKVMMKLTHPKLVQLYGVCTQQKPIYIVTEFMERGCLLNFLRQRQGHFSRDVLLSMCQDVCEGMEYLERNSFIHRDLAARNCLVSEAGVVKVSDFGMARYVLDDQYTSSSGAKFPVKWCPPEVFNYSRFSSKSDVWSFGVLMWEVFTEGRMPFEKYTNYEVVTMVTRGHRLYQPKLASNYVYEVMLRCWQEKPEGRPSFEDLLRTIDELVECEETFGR
Description: as §1

IC50 (ITK)	IC50 (TEC)	Compound
≤ 10 nM	≤ 10 nM	C=CC(=O)N1CCC[C@@H](N(C)c2cnc(C(N)=O)c(Nc3ccc(C4CCN(C5CCCC5)CC4)cc3)n2)C1 [Example E-125, (R)-5-((1-acryloylpiperidin-3-yl)(methyl)amino)-3-(4-(1-cyclopentylpiperidin-4-yl)phenylamino)pyrazine-2-carboxamide]
10 to 100 nM	1000 to 10000 nM	CC(C)c1ccc(Nc2nc(N3CCC[C@@H](N4CCC[C@@H](Nc5cc(Cl)cc(C(F)(F)F)c5)C4=O)C3)nnc2C(N)=O)cc1 [Example E-128, 3-((3R,3′R)-3-((3-chloro-5-(trifluoromethyl)phenyl)amino)-2-oxo-[1,3′-bipiperidin]-1′-yl)-5-((4-isopropylphenyl)amino)-1,2,4-triazine-6-carboxamide]
10 to 100 nM	≤ 10 nM	C[C@@H]1[C@H](NC(=O)c2ccc(C3CC3)cc2)CCCN1c1cnc(C(N)=O)c(Nc2ccc(OC3CCN(C)C3)cc2)n1 (stereo partly drawn) [Example E-136, 5-((2R,3R)-3-(4-cyclopropylbenzamido)-2-methylpiperidin-1-yl)-3-((4-((1-methylpyrrolidin-3-yl)oxy)phenyl)amino) pyrazine-2-carboxamide]
10 to 100 nM	10 to 100 nM	C[C@@H]1[C@H](NC(=O)c2ccc(C3CC3)cc2)CCCN1c1cnc(C(N)=O)c(Nc2ccc(N3CCN(C4CCCC4)C[C@@H]3C)cc2)n1 [Example E-137, 3-((4-((S)-4-cyclopentyl-2-methylpiperazin-1-yl)phenyl)amino)-5-((2R,3R)-3-(4-cyclopropylbenzamido)-2-methyipiperidin-1-yl)pyrazine-2-carboxamide]
100 to 1000 nM	≤ 10 nM	C[C@@H]1[C@H](NC(=O)c2ccc(C(=O)N(C)C)cc2)CCCN1c1cnc(C(N)=O)c(Nc2cnn(C)c2)n1 [Example E-138, N1-((2R,3R)-1-(5-carbamoyl-6-((1-methyl-1H-pyrazol-4-yl)amino)pyrazin-2-yl)-2-methylpiperidin-3-yl)-N4,N4-dimethylterephthalamide]
100 to 1000 nM	≤ 10 nM	C[C@@H]1[C@H](NC(=O)c2ccc3oc(C4CC4)nc3c2)CCCN1c1cnc(C(N)=O)c(Nc2cnn(C)c2)n1 [Example E-139, N-((2R,3R)-1-(5-carbamoyl-6-((1-methyl-1H-pyrazol-4-yl)amino)pyrazin-2-yl)-2-methylpiperidin-3-yl)-2-cyclopropylbenzo[d] oxazole-5-carboxamide]
> 10000 nM	1000 to 10000 nM	C[C@@H]1CCN(c2cnc(C(N)=O)c(Nc3cnn(C)c3)n2)C[C@@H]1NC(=O)c1ccc(C2CC2)cc1 [Example E-140, 5-((3R,4R)-3-(4-cyclopropylbenzamido)-4-methylpiperidin-1-yl)-3-((1-methyl-1H-pyrazol-4-yl)amino)pyrazine-2-carboxamide]
1000 to 10000 nM	100 to 1000 nM	Cn1cc(Nc2nc(N3CCC4CCN(C(=O)c5ccc(C6CC6)cc5)C4C3)cnc2C(N)=O)cn1 (stereo not shown) [Example E-141, 5-(1-(4-cyclopropylbenzoyl)octahydro-6H-pyrrolo[2,3-c]pyridin-6-yl)-3-((1-methyl-3H-pyrazol-4-yl)amino)pyrazine-2-carboxamide]
10 to 100 nM	≤ 10 nM	C[C@@H]1[C@H](NC(=O)c2ccc(C3CC3)cc2)CCCN1c1cnc(C(N)=O)c(Nc2ccc(N3CCN(C4COC4)C[C@@H]3C)cc2)n1 [Example E-142, 5-((2R,3R)-3-(4-cyclopropylbenzamido)-2-methylpiperidin-1-yl)-3-((4-((S)-2-methyl-4-(oxetan-3-yl)piperazin-1-yl)phenyl)amino)pyrazine-2-carboxamide]
100 to 1000 nM	≤ 10 nM	C[C@@H]1[C@H](NC(=O)c2ccc(C(C)(C)N3CCCC3)cc2)CCCN1c1cnc(C(N)=O)c(Nc2cnn(C)c2)n1 [Example E-143, 3-((1-methyl-1H-pyrazol-4-yl)amino)-5-((2R,3R)-2-methyl-3-(4-(2-(pyrrolidin-1-yl)propan-2-yl)benzamido)piperidin-1-yl)pyrazine-2-carboxamide]
100 to 1000 nM	100 to 1000 nM	C[C@@H]1[C@H](NC(=O)c2ccc(C3CC3)cc2)CCCN1c1cnc(C(N)=O)c(Nc2cnc(C3CCOCC3)nc2)n1 [Example E-144, 5-((2R,3R)-3-(4-cyclopropylbenzamido)-2-methylpiperidin-1-yl)-3-((2-(tetrahydro-2H-pyran-4-yl)pyrimidin-5-yl)amino)pyrazine-2-carboxamide]
100 to 1000 nM	≤ 10 nM	C[C@@H]1[C@H](NC(=O)c2cccc(C(C)(C)O)c2)CCCN1c1cnc(C(N)=O)c(Nc2cnn(C)c2)n1 [Example E-145, 5-((2R,3R)-3-(3-(2-hydroxypropan-2-yl)benzamido)-2-methylpiperidin-1-yl)-3-((1-methyl-1H-pyrazol-4-yl)amino)pyrazine-2-carboxamide]
100 to 1000 nM	≤ 10 nM	C[C@@H]1[C@H](NC(=O)c2cc(C(C)(C)C)nn2C)CCCN1c1cnc(C(N)=O)c(Nc2cnn(C)c2)n1 [Example E-146, 5-((2R,3R)-3-(3-(tert-butyl)-1-methyl-1H-pyrazole-5-carboxamido)-2-methylpiperidin-1-yl)-3-((1-methyl-1H-pyrazol-4-yl)amino)pyrazine-2-carboxamide]
10 to 100 nM	≤ 10 nM	C[C@@H]1[C@H](NC(=O)c2ccc(C3CC3)cc2)CCCN1c1cnc(C(N)=O)c(Nc2ccc(N3CCN(C)C[C@@H]3C)cc2)n1 [Example E-148, 5-((2R,3R)-3-(4-cyclopropylbenzamido)-2-methylpiperidin-1-yl)-3-((4-((S)-2,4-dimethylpiperazin-1-yl)phenyl)amino)pyrazine-2-carboxamide]
1000 to 10000 nM	100 to 1000 nM	C[C@@H]1[C@H](NC(=O)c2noc(C(C)(C)C)n2)CCCN1c1cnc(C(N)=O)c(Nc2cnn(C)c2)n1 [Example E-149, 5-(tert-butyl)-N-((2R,3R)-1-(5-carbamoyl-6-((1-methyl-1H-pyrazol-4-yl)amino)pyrazin-2-yl)-2-methylpiperidin-3-yl)-1,2,4-oxadiazole-3-carboxamide]
> 10000 nM	100 to 1000 nM	Cn1cc(Nc2nc(N3CCCC(C)(NC(=O)c4ccc(C5CC5)cc4)C3)cnc2C(N)=O)cn1 (stereo not shown) [Example E-150, 5-(3-(4-cyclopropylbenzamido)-3-methylpiperidin-1-yl)-3-((1-methyl-1H-pyrazol-4-yl)amino)pyrazine-2-carboxamide]
100 to 1000 nM	≤ 10 nM	CCC(O)(CC)c1ccc(C(=O)N[C@@H]2CCCN(c3cnc(C(N)=O)c(Nc4cnn(C)c4)n3)[C@@H]2C)cc1 [Example E-151, 5-((2R,3R)-3-(4-(3-hydroxypentan-3-yl)benzamido)-2-methylpiperidin-1-yl)-3-((1-methyl-1H-pyrazol-4-yl)amino)pyrazine-2-carboxamide]
100 to 1000 nM	≤ 10 nM	Cc1cc(C(=O)N[C@@H]2CCCN(c3cnc(C(N)=O)c(Nc4cnn(C)c4)n3)[C@@H]2C)ccc1C(C)(C)O [Example E-152, 5-((2R,3R)-3-(4-(2-hydroxypropan-2-yl)-3-methylbenzamido)-2-methylpiperidin-1-yl)-3-((1-methyl-1H-pyrazol-4-yl)amino)pyrazine-2-carboxamide]

Compound	IC50 (ITK)	IC50 (TEC)
C=CC(=O)N1CCC[C@@H](Nc2nnc(C(N)=O)c(Nc3ccc(C4(C)CCN(C5CC5)CC4)cc3)n2)[C@H]1C [Example E-127, 3-(((2R,3R)-1-acryloyl-2-methylpiperidin-3-yl)amino)-5-((4-(1-cyclopropyl-4-methylpiperidin-4-yl)phenyl)amino)-1,2,4-triazine-6-carboxamide]	≤ 10 nM	≤ 10 nM
C[C@@H]1[C@H](NC(=O)c2ccc(C(C)(C)O)cc2)CCCN1c1cnc(C(N)=O)c(Nc2ccc(C3(C)CCN(C4CC4)CC3)cc2)n1 [Example E-147, 3-((4-(1-cyclopropyl-4-methylpiperidin-4-yl)phenyl)amino)-5-((2R,3R)-3-(4-(2-hydroxypropan-2-yl)benzamido)-2-methylpiperidin-1-yl)pyrazine-2-carboxamide]	10 to 100 nM	≤ 10 nM
